Test results published in ChEMBL document CHEMBL4177615 (Bioorg Med Chem, 2017).

Experiments:
Plasmodium falciparum [1] = experiment: Antimalarial activity against Plasmodium falciparum 3D7 infected in ARh+ human erythrocytes after 42 to 48 hrs by Picogreen staining-based 96 well microplate assay; assay type: functional, organism-based
Plasmodium falciparum [2] = experiment: Antimalarial activity against Plasmodium falciparum 3D7 infected in ARh+ human erythrocytes at 0.1 uM after 42 to 48 hrs by Picogreen staining-based 96 well microplate assay; assay type: functional; settings: read-out: GI
Plasmodium falciparum [3] = experiment: Antimalarial activity against Plasmodium falciparum 3D7 infected in ARh+ human erythrocytes at 0.01 uM after 42 to 48 hrs by Picogreen staining-based 96 well microplate assay; assay type: functional; settings: read-out: GI
Plasmodium falciparum [4] = experiment: Antimalarial activity against Plasmodium falciparum 3D7 infected in ARh+ human erythrocytes at 10 uM after 42 to 48 hrs by Picogreen staining-based 96 well microplate assay; assay type: functional; settings: read-out: GI
Plasmodium falciparum [5] = experiment: Antimalarial activity against Plasmodium falciparum 3D7 infected in ARh+ human erythrocytes at 1 uM after 42 to 48 hrs by Picogreen staining-based 96 well microplate assay; assay type: functional; settings: read-out: GI
[6] = target: Voltage-gated inwardly rectifying potassium channel KCNH2 (Homo sapiens, UniProt Q12809); experiment: Inhibition of human ERG expressed in Xenopus laevis oocytes by two-electrode voltage clamp assay; assay type: cell-based
Sequence of Voltage-gated inwardly rectifying potassium channel KCNH2 (Q12809 whole entry): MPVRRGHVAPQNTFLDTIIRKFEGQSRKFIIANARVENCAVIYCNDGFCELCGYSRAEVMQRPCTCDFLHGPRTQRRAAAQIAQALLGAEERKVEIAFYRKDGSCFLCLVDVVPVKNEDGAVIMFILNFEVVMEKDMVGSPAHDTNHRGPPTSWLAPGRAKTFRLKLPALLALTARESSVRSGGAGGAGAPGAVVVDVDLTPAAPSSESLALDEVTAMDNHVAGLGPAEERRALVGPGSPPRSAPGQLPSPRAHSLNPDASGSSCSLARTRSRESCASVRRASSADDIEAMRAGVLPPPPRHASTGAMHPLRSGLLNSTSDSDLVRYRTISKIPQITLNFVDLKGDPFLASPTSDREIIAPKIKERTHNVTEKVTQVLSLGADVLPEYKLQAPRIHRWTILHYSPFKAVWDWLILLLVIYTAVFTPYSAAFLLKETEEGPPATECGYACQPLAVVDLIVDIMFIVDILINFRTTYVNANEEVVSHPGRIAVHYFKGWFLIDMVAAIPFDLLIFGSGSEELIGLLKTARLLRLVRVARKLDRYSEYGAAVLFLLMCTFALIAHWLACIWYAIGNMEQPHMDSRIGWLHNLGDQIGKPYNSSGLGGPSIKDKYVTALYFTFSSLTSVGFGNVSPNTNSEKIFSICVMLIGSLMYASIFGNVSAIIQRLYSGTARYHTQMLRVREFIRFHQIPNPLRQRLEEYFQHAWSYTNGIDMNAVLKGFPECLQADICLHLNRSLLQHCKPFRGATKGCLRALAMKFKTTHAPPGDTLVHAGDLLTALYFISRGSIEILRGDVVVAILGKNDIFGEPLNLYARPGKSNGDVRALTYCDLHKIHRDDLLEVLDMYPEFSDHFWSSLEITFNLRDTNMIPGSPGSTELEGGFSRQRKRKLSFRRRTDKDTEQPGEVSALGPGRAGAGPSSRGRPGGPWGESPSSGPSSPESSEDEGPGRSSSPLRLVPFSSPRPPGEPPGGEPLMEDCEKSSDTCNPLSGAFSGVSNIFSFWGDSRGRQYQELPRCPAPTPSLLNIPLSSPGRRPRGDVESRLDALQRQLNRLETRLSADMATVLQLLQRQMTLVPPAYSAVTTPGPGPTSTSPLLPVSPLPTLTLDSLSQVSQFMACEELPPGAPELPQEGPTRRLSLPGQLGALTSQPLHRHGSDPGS

hERG (KCNH2) = experiment: Selectivity index, ratio of IC50 for inhibition of human ERG expressed in Xenopus laevis oocytes to IC50 for Plasmodium falciparum 3D7; assay type: toxicity, cell-based; settings: read-out: Ratio IC50

IC50 (Plasmodium falciparum [1])	SMILES	inhibition of growth at 0.1 µM (Plasmodium falciparum [2])	inhibition of growth at 0.01 µM (Plasmodium falciparum [3])	inhibition of growth at 10 µM (Plasmodium falciparum [4])	inhibition of growth at 1 µM (Plasmodium falciparum [5])	IC50 [6]	selectivity ratio (hERG (KCNH2))
0.196 µM	Fc1ccc(Cn2c(NC3CCN(CCCc4ccccc4)CC3)nc3ccccc32)cc1	37%	2%	100%	78%		
1.9 µM	Fc1ccc(Cn2c(NC3CCN(Cc4ccccc4)CC3)nc3ccccc32)cc1	2%	2%	94%	29%		
5.32 µM	COc1ccc(CCN2CCC(Nc3nc4ccccc4n3Cc3ccc(F)cc3)C2)cc1 (centres undefined)	0%	0%	67%	14%		
6.53 µM	COc1ccc(CCN2CCN(c3nc4ccccc4n3Cc3ccc(F)cc3)CC2)cc1	0%	0%	57%	21%		
> 10 µM	O=C(NCc1ccccc1)N1CCC(Nc2nc3ccccc3n2Cc2ccc(F)cc2)CC1	0%	0%	25%	4%		
6.74 µM	COCn1c(NC2CCN(CCc3ccc(OC)cc3)CC2)nc2ccccc21	0%	0%	64%	5%		
6.85 µM	COc1ccc(OC)c(S(=O)(=O)N2CCC(Nc3nc4ccccc4n3Cc3ccc(F)cc3)CC2)c1	4%	5%	61%	8%		
0.029 to 0.0296 µM	CCCCCCCCn1c(NC2CCN(CCc3ccc(OC)cc3)CC2)nc2ccccc21	93%	4%	100%	96%	3.27 µM	110
> 10 µM	O=C(N1CCOCC1)N1CCC(Nc2nc3ccccc3n2Cc2ccc(F)cc2)CC1	0%	0%	26%	0%		
3.96 µM	O=S(=O)(c1ccc(Cl)cc1)N1CCC(Nc2nc3ccccc3n2Cc2ccc(F)cc2)CC1	1%	4%	83%	6%		
10 µM	O=C(c1ccc(F)cc1)N1CCC(Nc2nc3ccccc3n2Cc2ccc(F)cc2)CC1	0%	0%	51%	6%		
0.829 µM	CC(C)CN1CCC(Nc2nc3ccccc3n2Cc2ccc(F)cc2)CC1	0%	0%	90%	60%		
> 10 µM	CC(C)S(=O)(=O)N1CCC(Nc2nc3ccccc3n2Cc2ccc(F)cc2)CC1	3%	2%	11%	1%		
0.085 to 0.102 µM	COc1ccc(CCN2CCC(Nc3nc4ccccc4n3Cc3ccc(F)cc3F)CC2)cc1	55%	0%	80%	100%	0.178 µM	1.7
0.111 µM	COc1ccc(CCN2CCC(Nc3nc4ccccc4n3Cc3ccc(Br)cc3)CC2)cc1	47%	0%	97%	100%		
> 10 µM	O=C(NCCc1ccccc1)N1CCC(Nc2nc3ccccc3n2Cc2ccc(F)cc2)CC1	1%	8%	49%	15%		
6.28 µM	O=C(Nc1ccc2c(c1)CCC2)N1CCC(Nc2nc3ccccc3n2Cc2ccc(F)cc2)CC1	2%	1%	66%	5%		
8.29 µM	Cc1ccc(S(=O)(=O)N2CCC(Nc3nc4ccccc4n3Cc3ccc(F)cc3)CC2)cc1	7%	8%	55%	10%		
6.18 µM	O=C(c1ccc(C(F)(F)F)cc1)N1CCC(Nc2nc3ccccc3n2Cc2ccc(F)cc2)CC1	0%	3%	66%	6%		
